Where “and” joins values, the source holds several entries; their conditions need not be identical. Identical values can stand only once. Like-named read-outs stand apart in the source and are kept apart here.
What was measured:
[1] = tested on: K-Ras G12C (NCI-H358 cells); test: Potency assay: pERK (AlphaLISA SureFire or In-Cell Western); format: cell-based; settings: Homo sapiens
Procedure: (§1) The purpose of this assay is to measure the ability of test compounds to inhibit K-Ras in cells. […] This procedure measures a decrease in cellular pERK in response to test compounds.
(§2) NCI-H358 cells were grown and maintained using media and procedures recommended by the ATCC. On the day prior to compound addition, cells were plated in 384-well cell culture plates (40 μl/well) and grown overnight in a 37° C., 5% CO2 incubator. Test compounds were prepared in 10, 3-fold dilutions in DMSO, with a high concentration of 10 mM. On the day of assay, 40 nL of test compound was added to each well of cell culture plate using an Echo550 liquid handler (LabCyte®). Concentrations of test compound were tested in duplicate. After compound addition, cells were incubated 4 hours at 37° C., 5% CO2. Following incubation, culture medium was removed and cells were washed once with phosphate buffered saline.
(§3) In some experiments, cellular pERK level was determined using the AlphaLISA SureFire Ultra p-ERK1/2 Assay Kit (PerkinElmer). Cells were lysed in 25 μL lysis buffer, with shaking at 600 RPM at room temperature. […] After a 2-hour incubation in the dark, 5 μL donor mix was added, plate was sealed, and incubated 2 hours at room temperature. Signal was read on an Envision plate reader (PerkinElmer) using standard AlphaLISA settings. Analysis of raw data was carried out in Excel (Microsoft) and Prism (GraphPad). Signal was plotted vs. the decadal logarithm of compound concentration, and IC50 was determined by fitting a 4-parameter sigmoidal concentration response model.
In other experiments, cellular pERK was determined by In-Cell Western. […] Fixed cells were washed 4 times for 5 minutes with TBS containing 0.1% Triton X-100 (TBST) and then blocked with 100 μL Odyssey blocking buffer (LI-COR) for 60 minutes at room temperature. […] Cells were washed 4 times for 5 minutes with TBST. Secondary antibody (IR-800CW rabbit, LI-COR, diluted 1:800) and DNA stain DRAQ5 (LI-COR, diluted 1:2000) were added and incubated 1-2 hours at room temperature. Cells were washed 4 times for 5 minutes with TBST. Plates were scanned on a LI-COR Odyssey CLx Imager. Analysis of raw data was carried out in Excel (Microsoft) and Prism (GraphPad). Signal was plotted vs. the decadal logarithm of compound concentration, and IC50 was determined by fitting a 4-parameter sigmoidal concentration response model.
as §1
as §2, with “mM. On day of” for “mM. On the day of”, “assay, 40 nl of test” for “assay, 40 nL of test”
as §3, with “μl” for “μL”, “sealed” for “sealed,”

NRAS G12C = NRAS G12C (Homo sapiens, UniProt P01111+P62937, G12C); test: Disruption of BRAF RBD interaction with Ras (FRET / MOA assay, with Cyclophilin A); format: biochemical; settings: NRAS G12C; read-out: NRAS G12C FRET data IC50
NRAS G12C, sequence (P01111 whole entry G12C): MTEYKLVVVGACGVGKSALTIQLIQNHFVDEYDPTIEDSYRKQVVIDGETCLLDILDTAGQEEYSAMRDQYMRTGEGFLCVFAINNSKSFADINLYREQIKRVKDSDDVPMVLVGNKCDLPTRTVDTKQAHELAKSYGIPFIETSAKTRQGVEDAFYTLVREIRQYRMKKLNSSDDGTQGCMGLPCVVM
NRAS G12C, sequence (P62937 whole entry): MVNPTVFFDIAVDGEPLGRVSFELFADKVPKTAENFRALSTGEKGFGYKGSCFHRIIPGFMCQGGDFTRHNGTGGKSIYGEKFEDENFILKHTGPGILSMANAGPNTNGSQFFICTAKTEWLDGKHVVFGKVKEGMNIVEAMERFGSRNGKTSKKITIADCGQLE

KRAS WT = KRAS WT (Homo sapiens, UniProt P01116+P62937); test: as above; format: biochemical; settings: KRAS WT; read-out: KRAS WT FRET data IC50
KRAS WT, sequence (P01116 1-169 isoform P01116-2 limits assumed): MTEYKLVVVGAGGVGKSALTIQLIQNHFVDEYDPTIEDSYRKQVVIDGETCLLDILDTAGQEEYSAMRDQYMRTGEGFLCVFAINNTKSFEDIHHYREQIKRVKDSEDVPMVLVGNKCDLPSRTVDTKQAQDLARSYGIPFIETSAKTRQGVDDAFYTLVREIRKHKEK
KRAS WT, sequence (P62937 whole entry): as the sequence (P62937 whole entry) above
In short: (§4)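 IC50 values reflect loss of K-Ras binding to BRAF RBD, read as a lowered TR-FRET ratio compared with DMSO, driven by compound-mediated K-Ras:Cyclophilin A complex formation. Compound top dose 30 μM final, 3-fold steps, 3 h incubation at 25 °C before a 1.5 h antibody step.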

KRAS G12D = KRAS G12D (Homo sapiens, UniProt P01116+P62937, G12D); test: as above; format: biochemical; settings: read-out: KRAS G12D FRET data, IC50
KRAS G12D, sequence (P01116 1-169 isoform P01116-2 G12D limits assumed): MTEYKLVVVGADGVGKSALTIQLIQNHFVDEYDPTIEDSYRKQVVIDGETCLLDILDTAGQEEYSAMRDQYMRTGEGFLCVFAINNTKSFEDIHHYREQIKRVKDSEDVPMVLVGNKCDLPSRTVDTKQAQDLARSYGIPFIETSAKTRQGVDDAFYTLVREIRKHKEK
KRAS G12D, sequence (P62937 whole entry): as the sequence (P62937 whole entry) above
In short: as §4

KRAS G13D = KRAS G13D (Homo sapiens, UniProt P01116+P62937, G13D); test: as above; format: biochemical; settings: KRAS G13D; read-out: KRAS G13D FRET data IC50
KRAS G13D, sequence (P01116 1-169 isoform P01116-2 G13D limits assumed): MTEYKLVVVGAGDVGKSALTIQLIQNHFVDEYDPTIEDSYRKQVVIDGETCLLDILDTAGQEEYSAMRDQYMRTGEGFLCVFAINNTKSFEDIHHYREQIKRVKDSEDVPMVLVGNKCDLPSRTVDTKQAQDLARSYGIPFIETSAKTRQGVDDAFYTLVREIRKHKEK
KRAS G13D, sequence (P62937 whole entry): as the sequence (P62937 whole entry) above
In short: as §4

KRAS G12C = KRAS G12C (Homo sapiens, UniProt P01116+P62937, G12C); test: as above; format: biochemical; settings: KRAS G12C; read-out: KRAS G12C FRET data IC50
KRAS G12C, sequence (P01116 1-169 isoform P01116-2 G12C): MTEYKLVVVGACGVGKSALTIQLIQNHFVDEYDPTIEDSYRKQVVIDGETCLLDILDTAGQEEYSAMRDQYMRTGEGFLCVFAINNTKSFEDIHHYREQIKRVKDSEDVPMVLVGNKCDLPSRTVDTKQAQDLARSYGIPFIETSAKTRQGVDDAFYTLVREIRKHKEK
KRAS G12C, sequence (P62937 whole entry): as the sequence (P62937 whole entry) above
In short: as §4

KRAS G12V = KRAS G12V (Homo sapiens, UniProt P01116+P62937, G12V); test: as above; format: biochemical; settings: KRAS G12V; read-out: KRAS G12V FRET data IC50
KRAS G12V, sequence (P01116 1-169 isoform P01116-2 G12V limits assumed): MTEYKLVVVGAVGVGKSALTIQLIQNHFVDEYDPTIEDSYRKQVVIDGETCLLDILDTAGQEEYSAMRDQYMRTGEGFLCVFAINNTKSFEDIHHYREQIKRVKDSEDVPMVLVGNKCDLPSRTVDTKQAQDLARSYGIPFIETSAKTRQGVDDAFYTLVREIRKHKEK
KRAS G12V, sequence (P62937 whole entry): as the sequence (P62937 whole entry) above
In short: as §4

KRAS G12S = KRAS G12S (Homo sapiens, UniProt P01116+P62937, G12S); test: as above; format: biochemical; settings: read-out: KRAS G12S FRET data, IC50
KRAS G12S, sequence (P01116 1-169 isoform P01116-2 G12S limits assumed): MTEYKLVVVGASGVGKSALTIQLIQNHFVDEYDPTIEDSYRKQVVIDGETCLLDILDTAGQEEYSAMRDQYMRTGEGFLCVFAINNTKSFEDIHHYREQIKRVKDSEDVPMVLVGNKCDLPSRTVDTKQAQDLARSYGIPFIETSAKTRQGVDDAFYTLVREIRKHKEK
KRAS G12S, sequence (P62937 whole entry): as the sequence (P62937 whole entry) above
In short: as §4

KRAS G13C = KRAS G13C (Homo sapiens, UniProt P01116+P62937, G13C); test: as above; format: biochemical; settings: KRAS G13C; read-out: KRAS G13C FRET data IC50
KRAS G13C, sequence (P01116 1-169 isoform P01116-2 G13C): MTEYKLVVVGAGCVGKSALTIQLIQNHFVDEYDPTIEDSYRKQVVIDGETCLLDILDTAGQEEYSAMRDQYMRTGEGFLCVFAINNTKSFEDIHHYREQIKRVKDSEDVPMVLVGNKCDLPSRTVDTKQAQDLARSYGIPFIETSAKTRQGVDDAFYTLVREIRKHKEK
KRAS G13C, sequence (P62937 whole entry): as the sequence (P62937 whole entry) above
In short: as §4

NCI-H358 (K-Ras G12C) = test: CellTiter-Glo cell viability assay, 5-day treatment; format: cell-based; settings: Homo sapiens
In short: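 Five-day compound treatment of plated cells; luminescent read after ~30 min at RT. Percent-of-DMSO data fit to a four-parameter logistic model.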

[2] = NCI-H358, H358 KRAS G12C, read-out: pERK EC50
[3] = NCI-H358, H358, K-Ras G12C, read-out: Additional H358 Cell Viability assay data (K-Ras G12C, IC50)

| SMILES | EC50 [1, 2] [µM] | IC50 (NRAS G12C) | IC50 (KRAS WT) | IC50 (KRAS G12D) [µM] | IC50 (KRAS G13D) | IC50 (KRAS G12C) | IC50 (KRAS G12V) | IC50 (KRAS G12S) | IC50 (KRAS G13C) | IC50 (NCI-H358 (K-Ras G12C); [3]) [µM] | EC50 ([1]; NCI-H358, read-out: pERK EC50) [µM] | IC50 (NCI-H358 (K-Ras G12C); NCI-H358, read-out: Additional H358 Cell Viability assay data (K-Ras G12C, IC50, uM), H358, K-Ras G12C) [µM] |
| --- | --- | --- | --- | --- | --- | --- | --- | --- | --- | --- | --- | --- |
| C=CC(=O)N1CC(OC[C@H](C(=O)N[C@H]2Cc3cccc(c3)-c3ccc4c(c3)c(c(-c3cccnc3[C@H](C)OC)n4CC)CC(C)(C)COC(=O)[C@@H]3CCCN(N3)C2=O)C(C)C)C1 (racemic) [Example A483] | < 5 | 0.1 to 1 µM | 1 to 10 µM | > 10 | > 10 µM | 0.1 to 1 µM | 1 to 10 µM | > 10 µM | 1 to 10 µM | – | – | – |
| C=CC(=O)N1CC[C@H](C(=O)N(C)[C@H](C(=O)N[C@H]2Cc3cc(O)cc(c3)-c3ccc4c(C(C)(C)C#N)c(-c5ccccc5CCOC)n(c4c3)CC(C)(C)COC(=O)[C@@H]3CCCN(N3)C2=O)C(C)C)C1 [Example A12] | < 5 | – | – | – | – | – | – | – | – | – | – | – |
| C=CC(=O)N1CC[C@H](C(=O)N(C)[C@H](C(=O)N[C@H]2Cc3cccc(c3)-c3ccc4c(c3)c(c(-c3cccnc3COC)n4CC)CC(C)(C)COC(=O)[C@@H]3CCCN(N3)C2=O)C(C)C)C1 [Example A65] | < 5 | – | – | – | – | – | – | – | – | 0.1 to 1 | – | – |
| CCn1c(-c2cncnc2)c2c3cc(ccc31)-c1cc(O)cc(c1)C[C@H](NC(=O)[C@H](C(C)C)N(C)C(=O)[C@H]1CCN(C(=O)C#CCN(C)C)C1)C(=O)N1CCC[C@H](N1)C(=O)OCC(C)(C)C2 [Example A108] | < 5 | < 0.01 µM | 1 to 10 µM | 1 to 10 | 1 to 10 µM | < 0.01 µM | 1 to 10 µM | 1 to 10 µM | 0.01 to 0.1 µM | < 0.01 | – | – |
| C=CC(=O)N1CC[C@H](C(=O)N(C)[C@H](C(=O)N[C@H]2Cc3cc(O)cc(c3)-c3ccc4c(c3)c(c(-c3cc(CN(C)C)cnc3COC)n4CC)CC(C)(C)COC(=O)[C@@H]3CCCN(N3)C2=O)C(C)C)C1 [Example A149] | < 5 | 0.01 to 0.1 µM | 0.1 to 1 µM | 1 to 10 | 0.1 to 1 µM | 0.01 to 0.1 µM | 0.1 to 1 µM | 0.1 to 1 µM | 0.1 to 1 µM | 0.01 to 0.1 | – | – |
| CCn1c(-c2cccnc2COC)c2c3cc(ccc31)-c1cc(O)cc(c1)C[C@H](NC(=O)[C@@H](C(C)C)N(C)C(=O)[C@H]1CCN(C(=O)C#CCN(C)C)C1)C(=O)N1CCC[C@H](N1)C(=O)OCC(C)(C)C2 [Example A156] | < 5 | 0.1 to 1 µM | > 10 µM | 1 to 10 | 1 to 10 µM | 0.01 to 0.1 µM | > 10 µM | > 10 µM | 1 to 10 µM | 0.01 to 0.1 | – | – |
| C=CC(=O)N1CC[C@H](C(=O)N(C)[C@H](C(=O)N[C@H]2Cc3cc(O)cc(c3)-c3ccc4c(c3)c(c(-c3cnn(C)c3[C@H](C)OC)n4CC)CC(C)(C)COC(=O)[C@@H]3CCCN(N3)C2=O)C(C)C)C1 [Example A166] | < 5 | – | – | – | – | – | – | – | – | – | – | – |
| CC#CC(=O)N1CC[C@H](C(=O)N(C)[C@@H](C(=O)N[C@H]2Cc3cc(O)cc(c3)-c3ccc4c(c3)c(c(-c3cccnc3[C@H](C)OC)n4CC)CC(C)(C)COC(=O)[C@@H]3CCCN(N3)C2=O)C(C)C)C1 [Example A199] | – | – | – | – | – | – | – | – | – | – | < 5 | 0.1 to 1 |
| C=CC(=O)N1CC[C@H](C(=O)N(C)[C@H](C(=O)N[C@H]2Cc3cc(O)cc(c3)-c3ccc4c(c3)c(c(-c3ccc5c(c3)CN(C)C5)n4CC)CC(C)(C)COC(=O)[C@@H]3CCCN(N3)C2=O)C(C)C)C1 [Example A212] | < 5 | 0.1 to 1 µM and 1 to 10 µM | 1 to 10 µM and > 10 µM | > 10 | 1 to 10 µM and > 10 µM | 0.1 to 1 µM and 1 to 10 µM | 1 to 10 µM and > 10 µM | 1 to 10 µM and > 10 µM | 1 to 10 µM and > 10 µM | – | – | – |
| C=CC(=O)N1CC[C@]2(CCN([C@H](C(=O)N[C@H]3Cc4cc(O)cc(c4)-c4ccc5c(c4)c(c(-c4ccccc4CCOC)n5CC)CC(C)(C)COC(=O)[C@@H]4CCCN(N4)C3=O)C(C)C)C2=O)C1 [Example A216] | < 5 | – | 1 to 10 µM and > 10 µM | > 10 | – | 0.1 to 1 µM and 1 to 10 µM | 1 to 10 µM and > 10 µM | 1 to 10 µM and > 10 µM | 0.1 to 1 µM and > 10 µM | – | – | – |
| C=CC(=O)N1CCC(C(=O)N(C)C(C(=O)NC2Cc3nc(cs3)-c3ccc4c(c3)c(c(-c3cccnc3C(C)OC)n4CC)CC(C)(C)COC(=O)C3CCCN(N3)C2=O)C(C)C)C1 (centres unmarked) [Example A279] | < 5 | 1 µM to 10 µM and > 10 µM (2×) | > 10 µM | > 10 | > 10 µM | 1 µM to 10 µM and > 10 µM (2×) | > 10 µM | > 10 µM | 1 µM to 10 µM and > 10 µM (2×) | – | – | – |
| CCn1c(-c2cccnc2[C@H](C)OC)c2c3cc(ccc31)-c1cccc(c1)C[C@H](NC(=O)[C@H](C(C)C)N(C)C(=O)[C@H]1CCN(C(=O)C#C[C@@H]3CCO3)C1)C(=O)N1CCC[C@H](N1)C(=O)OCC(C)(C)C2 [Example A509] | < 5 | < 0.01 µM | – | – | – | – | – | – | – | < 0.01 | – | – |
| CCn1c(-c2cccnc2[C@H](C)OC)c2c3cc(ccc31)-c1cccc(n1)C[C@H](NC(=O)[C@H](C(C)C)N1CC[C@@]3(CCN(C(=O)C#C[C@@H]4COCCN4C)C3)C1)C(=O)N1CCC[C@H](N1)C(=O)OCC(C)(C)C2 [Example A549] | < 5 | – | – | – | – | – | – | – | – | < 0.01 | – | – |
| CCn1c(-c2cccnc2[C@H](C)OC)c2c3cc(ccc31)-c1cccc(c1)C[C@H](NC(=O)[C@H](C(C)C)N1CC[C@@]3(CCN(C(=O)C#C[C@@H]4COCCN4C4COC4)C3)C1=O)C(=O)N1CCC[C@H](N1)C(=O)OCC(C)(C)C2 [Example A566] | < 5 | – | – | – | – | – | – | – | – | < 0.01 | – | – |
